According to PMC8219695 (Nature Communications, 2021):
Where “and” joins values, the source holds several entries; their conditions need not be identical. Identical values can stand only once.

Assays:
mDOR = target: T1, mDOR (Mus musculus, UniProt P32300); assay: CAMYEL BRET cAMP agonist assay at mDOR; assay type: cell-based; conditions: for Agonist activity of 7OH analogs at mDOR: single replicate values, Supplementary Figure 7B
T1 construct: expressed in transfected cells

hDOR = hDOR (Homo sapiens, UniProt P41143); assay: CAMYEL BRET cAMP agonist assay at hDOR; assay type: cell-based; conditions: for Agonist activity of 7OH analogs at hDOR: single replicate values, Supplementary Figure 7A
Sequence of hDOR (P41143 whole entry): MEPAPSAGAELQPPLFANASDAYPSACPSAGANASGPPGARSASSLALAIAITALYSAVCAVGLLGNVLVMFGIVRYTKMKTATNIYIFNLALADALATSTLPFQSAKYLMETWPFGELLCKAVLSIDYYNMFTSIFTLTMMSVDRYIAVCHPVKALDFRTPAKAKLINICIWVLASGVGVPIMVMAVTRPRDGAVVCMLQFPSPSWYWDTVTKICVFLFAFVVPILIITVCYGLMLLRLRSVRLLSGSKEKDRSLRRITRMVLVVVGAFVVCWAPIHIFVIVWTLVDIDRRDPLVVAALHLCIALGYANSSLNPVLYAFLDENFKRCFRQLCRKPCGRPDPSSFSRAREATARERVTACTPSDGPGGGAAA

rKOR = target: T2, rKOR (Rattus norvegicus, UniProt P34975); assay: CAMYEL BRET cAMP agonist assay at rKOR; assay type: cell-based; conditions: individual replicates, Supplementary Figure 8B source data
T2 construct: expressed in transfected cells
T2 sequence (P34975 whole entry): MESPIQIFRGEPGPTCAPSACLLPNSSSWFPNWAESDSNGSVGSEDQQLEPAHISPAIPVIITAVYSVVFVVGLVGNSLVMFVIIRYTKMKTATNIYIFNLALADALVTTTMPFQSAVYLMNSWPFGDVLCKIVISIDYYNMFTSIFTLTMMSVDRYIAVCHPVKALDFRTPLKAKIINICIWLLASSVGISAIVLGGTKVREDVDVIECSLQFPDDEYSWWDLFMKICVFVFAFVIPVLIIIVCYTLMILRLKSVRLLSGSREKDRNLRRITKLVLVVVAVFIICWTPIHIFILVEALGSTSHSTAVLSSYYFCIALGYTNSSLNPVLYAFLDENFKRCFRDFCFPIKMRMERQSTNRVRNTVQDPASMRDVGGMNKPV

hKOR = hKOR (Homo sapiens, UniProt P41145); assay: CAMYEL BRET cAMP agonist assay at hKOR; assay type: cell-based; conditions: individual replicates, Supplementary Figure 8A source data
Sequence of hKOR (P41145 whole entry): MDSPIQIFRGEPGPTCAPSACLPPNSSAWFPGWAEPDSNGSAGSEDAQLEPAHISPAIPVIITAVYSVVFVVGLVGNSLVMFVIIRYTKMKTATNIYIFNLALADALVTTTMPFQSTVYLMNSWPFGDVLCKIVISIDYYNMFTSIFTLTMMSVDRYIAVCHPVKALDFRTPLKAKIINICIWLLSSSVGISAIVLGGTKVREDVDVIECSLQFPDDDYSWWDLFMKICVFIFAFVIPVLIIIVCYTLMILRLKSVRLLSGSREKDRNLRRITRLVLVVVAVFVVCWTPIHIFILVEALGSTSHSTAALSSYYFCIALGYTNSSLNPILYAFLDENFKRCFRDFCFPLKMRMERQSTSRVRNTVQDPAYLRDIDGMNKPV

CD1 mice = assay: Tail-flick antinociception in CD1 mice; assay type: in vivo, mouse; conditions: 5 or 25 mg/kg s.c., CD1 mice, time course

T1 sequence (P32300 whole entry): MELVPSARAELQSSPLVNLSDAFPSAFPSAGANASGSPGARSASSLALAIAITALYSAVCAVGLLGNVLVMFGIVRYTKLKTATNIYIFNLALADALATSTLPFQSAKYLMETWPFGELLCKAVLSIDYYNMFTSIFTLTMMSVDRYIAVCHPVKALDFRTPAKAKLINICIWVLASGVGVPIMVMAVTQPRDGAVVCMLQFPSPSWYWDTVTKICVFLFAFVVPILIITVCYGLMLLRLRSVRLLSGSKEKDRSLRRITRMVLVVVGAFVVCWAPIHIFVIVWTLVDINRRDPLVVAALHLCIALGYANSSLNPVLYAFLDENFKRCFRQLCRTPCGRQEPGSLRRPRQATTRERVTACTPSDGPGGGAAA

CC[C@@H]1CN2CC[C@@]3(O)C(=Nc4cc(Cl)cc(OC)c43)[C@@H]2C[C@@H]1/C(=C\OC)C(=O)OC [11-Cl-7OH (23), 11-Cl-7OH]
Agonist activity of 7OH analogs at mDOR (mDOR; Log[drug] (M) -6): 24.5815 and 25.9676 and 37.4358 and 15.5242 and 17.7522 and 18.5933 and 15.1392 and 2.291 and 7.306 | Agonist activity of 7OH analogs at mDOR (mDOR; Log[drug] (M) -7): 31.8669 and 29.4684 and 27.3279 and 35.1303 and 15.7738 and 14.2288 and -2.321 and 1.192 and 1.129 | Agonist activity of 7OH analogs at mDOR (mDOR; Log[drug] (M) -8): 24.8631 and 32.1589 and 37.1926 and 12.9562 and 15.2093 and 7.166 and 10.5442 and -9.446 and 11.0136 | Agonist activity of 7OH analogs at mDOR (mDOR; Log[drug] (M) -9): 33.463 and 29.5442 and 24.9953 and 13.5309 and 13.5578 and 8.893 and 29.4233 | Agonist activity of 7OH analogs at mDOR (mDOR; Log[drug] (M) -10): 24.7821 and 18.2952 and 15.7891 and -5.277 and 4.222 and 6.7221 and 13.4439 and 1.454 and 8.443 | Agonist activity of 7OH analogs at mDOR (mDOR; Log[drug] (M) -11): 28.0105 and 19.9828 and 19.4476 and 11.3847 and -1.66 and -5.157 and 5.226 and 0.03212 and 8.89 | Agonist activity of 7OH analogs at mDOR (mDOR; Log[drug] (M) -13): -1.931 and 4.676 and 0.1543 and -4.31 and 4.156 and 0.5113 and 7.987 and 3.883 | Emax (mDOR; mDOR cAMP BRET, positive control DPDPE): very low efficacy | Agonist activity of 7OH analogs at hDOR (hDOR; Log[drug] (M) -5): 17.1397 and 15.6735 and 17.1747 and 8.18 and -3.544 and 1.305 and 21.6642 and 15.0671 and 20.6929 | Agonist activity of 7OH analogs at hDOR (hDOR; Log[drug] (M) -6): 30.6083 and 25.9231 and 32.3513 and 1.677 and 12.7082 and 9.625 and 17.2797 and 6.922 and 2.636 | Agonist activity of 7OH analogs at hDOR (hDOR; Log[drug] (M) -7): 15.9329 and 22.4846 and 15.3548 and 1.086 and 2.267 and 6.255 and -1.22 and -1.151 and 2.37 | Agonist activity of 7OH analogs at hDOR (hDOR; Log[drug] (M) -8): 13.6904 and 16.1168 and 10.9974 and 2.935 and -7.546 and 4.612 and 5.7671 and 0.4715 and 17.0267 | Agonist activity of 7OH analogs at hDOR (hDOR; Log[drug] (M) -9): 23.852 and 14.4843 and 22.6626 and 18.4578 and 15.1232 and 4.553 and 18.1791 and 11.0147 and 18.7534 | Agonist activity of 7OH analogs at hDOR (hDOR; Log[drug] (M) -10): 5.724 and 19.2021 and 4.266 and 3.553 and -1.827 and 11.1585 and 2.694 and 3.131 and 7.14 | Agonist activity of 7OH analogs at hDOR (hDOR; Log[drug] (M) -11): 7.339 and 12.4107 and 20.099 and 7.6883 and 4.754 and 8.248 and 8.188 and 1.326 and 2.427 | Agonist activity of 7OH analogs at hDOR (hDOR; Log[drug] (M) -13): -6.485 and 2.218 and 4.267 and 9.369 and -0.6447 and 11.9855 and 0.02092 and 7.539 and 4.083 | Emax (hDOR; hDOR cAMP BRET, positive control DPDPE): very low efficacy | Agonist activity of 7OH analogs at rKOR (rKOR; Log [drug](M) -5): 7.778 and 10.9917 and 16.9019 and -6.188 and -1.8256 and 8.442 and 6.4374 and 16.0399 and 7.566 | Agonist activity of 7OH analogs at rKOR (rKOR; Log [drug](M) -6): 8.066 and 4.412 and -3.244 and 6.747 and -4.426 and -2.321 and 10.6533 and 7.813 and 3.403 | Agonist activity of 7OH analogs at rKOR (rKOR; Log [drug](M) -7): 11.5045 and -0.8261 and -10.6783 and 7.768 and -4.174 and 5.42 and 2.7074 and 2.952 and 8.478 | Agonist activity of 7OH analogs at rKOR (rKOR; Log [drug](M) -8): 0.508 and -0.7332 and 4.656 and 8.713 and 2.1745 and 4.589 and 10.047 and 0.1108 and 9.912 | Agonist activity of 7OH analogs at rKOR (rKOR; Log [drug](M) -9): 6.738 and 3.9698 and 11.9053 and 20.8557 and 20.3344 and 22.4492 and 3.132 and -0.673 and 0.03935 | Agonist activity of 7OH analogs at rKOR (rKOR; Log [drug](M) -10): 7.8399 and 7.154 and 27.1145 and 5.225 and 8.778 and 7.65 and 0.6993 and -2.781 and 2.082 | Agonist activity of 7OH analogs at rKOR (rKOR; Log [drug](M) -11): 20.1355 and 7.2112 and 5.419 and 15.9158 and 14.9773 and 3.289 and 5.031 and 2.5469 and 3.562 | Agonist activity of 7OH analogs at rKOR (rKOR; Log [drug](M) -13): 2.6438 and 19.3085 and 15.1998 and 15.6888 and 12.292 and 1.7 and 4.489 and 13.3107 and 4.029 | Agonist activity of 7OH analogs at hKOR (hKOR; Log [drug](M) -5): 9.026 and -5.895 and 4.248 and 11.9704 and 8.484 and 2.501 and -3.893 and 6.434 and -2.541 | Agonist activity of 7OH analogs at hKOR (hKOR; Log [drug](M) -6): -2.414 and -2.835 and -8.98 and 12.2163 and 1.484 and -5.782 and -0.574 and -6.895 and -9.704 | Agonist activity of 7OH analogs at hKOR (hKOR; Log [drug](M) -7): -11.1771 and -3.626 and -0.5883 and -1.763 and -7.04 and -2.623 and -4.522 and -13.931 and 0.01935 | Agonist activity of 7OH analogs at hKOR (hKOR; Log [drug](M) -8): 2.99 and -4.136 and 1.141 and -3.765 and -7.282 and -9.586 and -2.533 and -2.303 and 3.7063 | Agonist activity of 7OH analogs at hKOR (hKOR; Log [drug](M) -9): -6.592 and -11.4451 and 3.708 and 3.417 and -6.737 and -11.3529 and 17.5943 and 11.6069 and 9.781 | Agonist activity of 7OH analogs at hKOR (hKOR; Log [drug](M) -10): -2.387 and -3.9069 and 3.049 and -10.4557 and -1.189 and 2.17 and 4.733 and 0.5961 and 8.633 | Agonist activity of 7OH analogs at hKOR (hKOR; Log [drug](M) -11): 8.282 and -7.987 and 6.107 and 1.524 and -1.1871 and -6.8877 and 2.73 and 5.876 and 10.03 | Agonist activity of 7OH analogs at hKOR (hKOR; Log [drug](M) -13): 4.46 and -4.721 and 0.2615 and 1.311 and -2.987 and 1.677 and 6.874 and 5.681 and 9.762 | analgesic effect in tail-flick (CD1 mice): no analgesic effect
